Laboratory results: the NIST ThermoML archive (doi:10.1016/j.tca.2017.12.013)
Numbers after ± are expanded uncertainties.

Assay: molar heat capacity at constant pressure
Settings: 101.33 kPa, Crystal 2, DSC

[Ag+].[Ag+].[S-2] [silver sulfide]
Settings | molar heat capacity at constant pressure [J/K/mol]
464.57 K | 90.35 ± 3.6
465.57 K | 90.28 ± 3.6
466.57 K | 90.21 ± 3.6
467.57 K | 90.13 ± 3.6
468.57 K | 90.06 ± 3.6
469.57 K | 89.98 ± 3.6
470.57 K | 89.9 ± 3.6
471.57 K | 89.82 ± 3.6
472.57 K | 89.75 ± 3.5
473.57 K | 89.67 ± 3.5
474.57 K | 89.59 ± 3.5
475.57 K | 89.51 ± 3.5
476.57 K | 89.43 ± 3.5
477.57 K | 89.35 ± 3.5
478.57 K | 89.28 ± 3.5
479.57 K | 89.2 ± 3.5
480.57 K | 89.12 ± 3.5
481.57 K | 89.05 ± 3.5
482.57 K | 88.97 ± 3.5
483.57 K | 88.9 ± 3.5
484.57 K | 88.83 ± 3.5
485.57 K | 88.76 ± 3.5
486.57 K | 88.69 ± 3.5
487.57 K | 88.62 ± 3.5
488.57 K | 88.55 ± 3.5
489.57 K | 88.48 ± 3.5
490.57 K | 88.42 ± 3.5
491.57 K | 88.35 ± 3.5
492.57 K | 88.29 ± 3.5
493.57 K | 88.23 ± 3.5
494.57 K | 88.17 ± 3.5
495.57 K | 88.11 ± 3.5
496.57 K | 88.06 ± 3.5
497.57 K | 88 ± 3.5
498.57 K | 87.95 ± 3.5
499.57 K | 87.9 ± 3.5
500.57 K | 87.85 ± 3.5
501.57 K | 87.8 ± 3.5
502.57 K | 87.76 ± 3.5
503.57 K | 87.71 ± 3.5
504.57 K | 87.67 ± 3.5
505.57 K | 87.62 ± 3.5
506.57 K | 87.58 ± 3.5
507.57 K | 87.54 ± 3.5
508.57 K | 87.54 ± 3.5
509.57 K | 87.54 ± 3.5
510.57 K | 87.54 ± 3.5
511.57 K | 87.57 ± 3.5
512.57 K | 87.59 ± 3.5
513.57 K | 87.61 ± 3.5
514.57 K | 87.61 ± 3.5
515.57 K | 87.61 ± 3.5
516.57 K | 87.62 ± 3.5
517.57 K | 87.62 ± 3.5
518.57 K | 87.62 ± 3.5
519.57 K | 87.64 ± 3.5
520.57 K | 87.64 ± 3.5
521.82 K | 87.58 ± 3.5
522.82 K | 87.56 ± 3.5
523.82 K | 87.54 ± 3.5
524.82 K | 87.52 ± 3.5
525.82 K | 87.5 ± 3.5
526.82 K | 87.48 ± 3.5
527.82 K | 87.46 ± 3.5
528.82 K | 87.45 ± 3.5
529.82 K | 87.43 ± 3.5
530.82 K | 87.42 ± 3.5
531.82 K | 87.4 ± 3.5
532.82 K | 87.39 ± 3.5
533.82 K | 87.38 ± 3.5
534.82 K | 87.37 ± 3.5
535.82 K | 87.36 ± 3.5
536.82 K | 87.35 ± 3.5
537.82 K | 87.34 ± 3.5
538.82 K | 87.33 ± 3.5
539.82 K | 87.32 ± 3.5
540.82 K | 87.31 ± 3.5
541.82 K | 87.3 ± 3.5
542.82 K | 87.29 ± 3.5
543.82 K | 87.28 ± 3.5
544.82 K | 87.27 ± 3.5
545.82 K | 87.26 ± 3.5
546.82 K | 87.26 ± 3.5
547.82 K | 87.25 ± 3.5
548.82 K | 87.24 ± 3.5
549.82 K | 87.23 ± 3.5
550.82 K | 87.22 ± 3.5
551.82 K | 87.22 ± 3.5
552.82 K | 87.21 ± 3.5
553.82 K | 87.2 ± 3.5
554.82 K | 87.19 ± 3.5
555.82 K | 87.18 ± 3.5
556.82 K | 87.17 ± 3.5
557.82 K | 87.17 ± 3.5
558.82 K | 87.16 ± 3.5
559.82 K | 87.15 ± 3.5
560.82 K | 87.14 ± 3.5
561.82 K | 87.13 ± 3.5
562.82 K | 87.12 ± 3.5
563.82 K | 87.11 ± 3.5
564.82 K | 87.1 ± 3.5
565.82 K | 87.09 ± 3.5
566.82 K | 87.07 ± 3.5
567.82 K | 87.06 ± 3.5
568.82 K | 87.05 ± 3.5
569.82 K | 87.04 ± 3.5
570.82 K | 87.02 ± 3.5
571.82 K | 87.01 ± 3.5
572.82 K | 87 ± 3.5
573.82 K | 86.98 ± 3.5
574.82 K | 86.97 ± 3.5
575.82 K | 86.95 ± 3.5
576.82 K | 86.94 ± 3.5
577.82 K | 86.92 ± 3.5
578.82 K | 86.91 ± 3.5
579.82 K | 86.89 ± 3.5
580.82 K | 86.87 ± 3.5
581.82 K | 86.85 ± 3.5
582.82 K | 86.83 ± 3.5
583.82 K | 86.82 ± 3.5
584.82 K | 86.8 ± 3.5
585.82 K | 86.78 ± 3.5
586.82 K | 86.76 ± 3.5
587.82 K | 86.74 ± 3.5
588.82 K | 86.72 ± 3.5
589.82 K | 86.7 ± 3.5
590.82 K | 86.67 ± 3.5
591.82 K | 86.65 ± 3.5
592.82 K | 86.63 ± 3.5
593.82 K | 86.61 ± 3.5
594.82 K | 86.61 ± 3.5
595.82 K | 86.63 ± 3.5
596.82 K | 86.62 ± 3.5
597.82 K | 86.62 ± 3.5
598.82 K | 86.6 ± 3.5
599.82 K | 86.6 ± 3.5
600.82 K | 86.58 ± 3.5
601.82 K | 86.55 ± 3.5
602.82 K | 86.53 ± 3.5
603.82 K | 86.5 ± 3.5
604.82 K | 86.48 ± 3.5
605.82 K | 86.45 ± 3.5
606.82 K | 86.43 ± 3.5
607.82 K | 86.4 ± 3.5
608.82 K | 86.38 ± 3.5
609.82 K | 86.35 ± 3.5
610.82 K | 86.33 ± 3.5
611.82 K | 86.3 ± 3.5
612.82 K | 86.28 ± 3.4
613.82 K | 86.25 ± 3.4
614.82 K | 86.23 ± 3.4
615.82 K | 86.2 ± 3.4
616.82 K | 86.18 ± 3.4
